Experimental findings from US9376433B2, “(AZA-)isoquinolinone derivatives” (MERCK PATENT GMBH, priority 2012, dated 2016) are described below.

In experiment [1] the target is T1, Tankyrase-2 (Homo sapiens, UniProt Q9H2K2).
T1 construct: GST-tagged Tankyrase-2 (873-1166 aa)
Description: Tankyrase 2 autoparsylation assay (HTRF enzyme assay). It counts as biochemical. The note with it: GST-tagged Tankyrase-2 (873-1166 aa). On the procedure:
Biochemical activity testing of Tankyrase 1 and 2: Autoparsylation assay
The autoparsylation assay is run in two steps: the enzymatic reaction in which GST-tagged Tankyrase-1, resp Tankyrase-2 transferred biotinylated ADP-ribose to itself from biotinylated NAD as co-substrate and the detection reaction where a time resolved FRET between cryptate labelled anti-GST bound to the GST tag of the enzyme and Xlent® labelled-streptavidin bound the biotin-parsylation residue is analysed. The autoparsylation activity was detectable directly via the increase in HTRF signal.
The autoparsylation assay is performed as 384-well HTRF® (Cisbio, Codolet, France) assay format in Greiner low volume nb 384-well microtiter plates and is used for high throughput screen. 250 nM GST-tagged Tankyrase-1 (1023-1327 aa), respectively about 250 nM GST-tagged Tankyrase-2 (873-1166 aa) and 5 μM bio-NAD (Biolog, Life science Inst., Bremen, Germany) as co-substrate are incubated in a total volume of 5 μl (50 mM HEPES, 4 mM Mg-chloride, 0.05% Pluronic F-68, 1.4 mM DTT, 0.5% DMSO, pH 7.7) in the absence or presence of the test compound (10 dilution concentrations) for 90 min at 30° C. The reaction is stopped by the addition of 1 μl 50 mM EDTA solution. 2 μl of the detection solution (1.6 μM SA-Xlent® (Cisbio, Codolet, France), 7.4 nM Anti-GST-K® (Eu-labelled anti-GST, Cisbio, Codolet, France) in 50 mM HEPES, 800 mM KF, 0.1% BSA, 20 mM EDTA, 0.1% CHAPS, pH 7.0) are added. After 1 h incubation at room temperature the HTRF is measured with an Envision multimode reader (Perkin Elmer LAS Germany GmbH) at excitation wavelength 340 nm (laser mode) and emission wavelengths 615 nm and 665 nm. The ratio of the emission signals is determined. The full value used is the inhibitor-free reaction. The pharmacological zero value used is XAV-939 (Tocris) in a final concentration of 5 μM. The inhibitory values (IC50) are determined using either the program Symyx Assay Explorer® or Condosseo® from GeneData.
In general terms: Time-resolved FRET reads energy transfer from a long-lived donor to a nearby acceptor.

The subject of experiment [2] is tankyrase 1/2. As to the kind of experiment: Cellular inhibition of tankyrase: increase of Axin2 level in DLD1 cells (Luminex). The settings on record: DLD1 colon carcinoma cells, 24 hours, read-out: EC50 tankyrase 1/2 (cell assay). It is filed as cell-based. On the procedure:
Measurement of Cellular Inhibition of Tankyrase
Since Tankyrases have been described to modulate cellular level of Axin2 (Huang et al., 2009; Nature) the increase of Axin2 level is used as read-out for determination of cellular inhibition of Tankyrases in a Luminex based assay.
Cells of the colon carcinoma cell line DLD1 are plated in 96 well plates with 1.5×10^4 cells per well. Next day, cells are treated with a serial dilution of test compound in seven steps as triplicates with a final DMSO concentration of 0.3%. After 24 hours, cells are lysed in lysis buffer (20 mM Tris/HCl pH 8.0, 150 mM NaCl, 1% NP40, 10% Glycerol) and lysates are cleared by centrifugation through a 96 well filter plate (0.65 μm). Axin2 protein is isolated from cell lysates by incubation with a monoclonal anti-Axin2 antibody (R&D Systems #MAB6078) that is bound to fluorescent carboxybeads. Then, bound Axin2 is specifically detected with a polyclonal anti-Axin2 antibody (Cell Signaling #2151) and an appropriate PE-fluorescent secondary antibody. The amount of isolated Axin2 protein is determined in a Luminex^200 machine (Luminex Corporation) according to the manufacturer's instruction by counting 100 events per well. Inhibition of Tankyrase by test compounds results in higher levels of Axin2 which directly correlates with an increase of detectable fluorescence. As controls cells are treated with solvent alone (neutral control) and with a Tankyrase reference inhibitor IWR-2 (3E-06 M) which refers as control for maximum increase of Axin2. For analysis, the obtained data are normalized against the untreated solvent control and fitted for determination of the EC50 values using the Assay Explorer software (Accelrys).

For experiment [3], the target named is T2, TNKS1 (Homo sapiens, UniProt O95271).
T2 construct: GST-tagged Tnks-1 (1023-1327 aa, prepared in-house); made in house
T2 sequence (O95271 1023-1327): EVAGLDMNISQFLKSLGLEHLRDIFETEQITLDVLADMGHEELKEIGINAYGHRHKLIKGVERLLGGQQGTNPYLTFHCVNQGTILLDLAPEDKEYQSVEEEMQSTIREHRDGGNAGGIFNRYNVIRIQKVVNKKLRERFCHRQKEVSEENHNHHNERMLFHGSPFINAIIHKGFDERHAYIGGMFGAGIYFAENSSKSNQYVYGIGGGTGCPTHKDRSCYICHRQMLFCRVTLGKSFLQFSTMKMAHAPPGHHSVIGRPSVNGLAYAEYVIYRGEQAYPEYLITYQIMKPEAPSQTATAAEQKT
As to the kind of experiment: TNKS1 activity ELISA (autoparsylation assay). It counts as biochemical. The settings on record: GST-tagged Tnks-1 (1023-1327 aa), luminescence. On the procedure:
Description of the TNKS1 and TNKS2 ELISA Assay
Biochemical activity testing of TNKS 1 and 2: activity ELISA (Autoparsylation assay)
For analysis of autoparsylation activity of TNKS 1 and 2 an activity ELISA iss performed: In the first step GST tagged TNKS is captured on a Glutathione coated plate. Then the activity assay with biotinylated NAD is performed in the absence/presence of the compounds. During the enzymatic reaction GST tagged TNKS transfers biotinylated ADP-ribose to itself from biotinylated NAD as co-substrate. For the detection streptavidin-HRP conjugate is added that binds to the biotinylated TNKS and is thereby captured to the plates. The amount of biotinylated resp. autoparsylated TNKS is detected with a luminescence substrate for HRP. The level of the luminescence signal correlats directly with the amount of autoparsylated TNKS and therefore with activity of TNKS.
The acitivity ELISA is performed in 384 well Glutathione coated microtiter plates (Express capture Glutathione coated plate, Biocat, Heidelberg, Germany). The plates are pre-equilibrated with PBS. Then the plates are incubated with 50 μl 20 ng/well GST-tagged Tnks-1 (1023-1327 aa, prepared in-house), respectively GST-tagged Tnks-2 (873-1166 aa, prepared in-house) in assay buffer (50 mM HEPES, 4 mM Mg-chloride, 0.05% Pluronic F-68, 2 mM DTT, pH 7.7) overnight at 4° C. The plates are washed 3 times with PBS-Tween-20. The wells are blocked by incubation at room temperature for 20 minutes with 50 μl blocking buffer (PBS, 0.05% Tween-20, 0.5% BSA). Afterwards the plates are washed 3 times with PBS-Tween-20. The enzymatic reaction is performed in 50 μl reaction solution (50 mM HEPES, 4 mM Mg-chloride, 0.05% Pluronic F-68, 1.4 mM DTT, 0.5% DMSO, pH 7.7) with10 μM bio-NAD (Biolog, Life science Inst., Bremen, Germany) as co-substrate in the absence or presence of the test compound (10 dilution concentrations) for 1 hour at 30° C. The reaction is stopped by 3 times washing with PBS-Tween-20. For the detection 50 μl of 20 ng/μl Streptavidin, HRP conjugate (MoBiTec, Göttingen, Germany) in PBS/0.05% Tween-20/0.01% BSA are added and the plates are incubated for 30 minutes at room temperature. After three times washing with PBS-Tween-20 50 μl of SuperSignal ELISA Femto Maximum sensitivity substrate solution (ThermoFisherScientific (Pierce), Bonn, Germany) are added. Following a 1 minute incubation at room temperature luminescence signals are measured with an Envision multimode reader (Perkin Elmer LAS Germany GmbH) at 700 nm. The full value used is the inhibitor-free reaction. The pharmacological zero value used is XAV-939 (Tocris) in a final concentration of 5 μM. The inhibitory values (IC50) are determined using either the program Symyx Assay Explorer® or Condosseo® from GeneData.
(In general: ELISA stands for enzyme-linked immunosorbent assay.)

T1 sequence (Q9H2K2 873-1166): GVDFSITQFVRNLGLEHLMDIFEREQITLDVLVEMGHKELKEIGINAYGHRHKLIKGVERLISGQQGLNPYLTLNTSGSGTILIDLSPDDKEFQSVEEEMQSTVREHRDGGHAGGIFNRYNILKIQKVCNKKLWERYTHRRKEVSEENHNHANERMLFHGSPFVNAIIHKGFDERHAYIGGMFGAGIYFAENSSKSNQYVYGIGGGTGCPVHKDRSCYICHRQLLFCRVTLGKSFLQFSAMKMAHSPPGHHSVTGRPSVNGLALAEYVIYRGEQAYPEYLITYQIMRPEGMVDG

With `Cc1ccc(-c2cc3c(C)cccc3c(=O)[nH]2)cc1` [Compound A29, 5-methyl-3-(p-tolyl)-2H-isoquinolin-1-one], the IC50 in experiment [1] was 300 to 3000 nM; in experiment [3], below 300 nM. Also, the EC50 in experiment [2] was in the range of 300 to 3000 nM.

Consider `Cn1cc(-c2ccc(-c3cc4ccc(F)cc4c(=O)[nH]3)cc2)cn1` [Compound A18, 7-fluoro-3-[4-(1-methyl-1H-pyrazol-4-yl)-phenyl]-2H-isoquinolin-1-one], for which the IC50 in experiment [1] was 300 to 3000 nM; in experiment [3], below 300 nM. Further, the EC50 in experiment [2] was below 300 nM.

Take `CC(C)(O)c1ccc(-c2cc3cnccc3c(=O)[nH]2)cc1` [Compound A23, 3-[4-(1-hydroxy-1-methyl-ethyl)phenyl]-2H-2,6-naphthyridin-1-one]: the IC50 in experiment [1] and in experiment [3] was below 300 nM in each case. For the same molecule, the EC50 in experiment [2] was in the range of 300 to 3000 nM.

For `CC(C)(O)c1ccc(-c2cc3c(F)cccc3c(=O)[nH]2)cc1` [Compound A28, 5-fluoro-3-[4-(1-hydroxy-1-methyl-ethyl)phenyl]-2H-isoquinolin-1-one], the IC50 in experiment [1] and in experiment [3] was below 300 nM throughout. Further, the EC50 in experiment [2] is below 300 nM.

Turning to `CC(C)(O)c1ccc(-c2cc3ccc(F)cc3c(=O)[nH]2)cc1` [Compound A6, 7-fluoro-3-[4-(1-hydroxy-1-methyl-ethyl)-phenyl]-2H-isoquinolin-1-one], the IC50 in experiment [1] and in experiment [3] was below 300 nM each time. Also, in experiment [2], the EC50 is below 300 nM.

Take `CC(C)(O)c1ccc(-c2cc3cccc(F)c3c(=O)[nH]2)cc1` [Compound A27, 8-fluoro-3-[4-(1-hydroxy-1-methyl-ethyl)phenyl]-2H-isoquinolin-1-one]: the IC50 in experiment [1] and in experiment [3] was below 300 nM in each case. The EC50 in experiment [2] was below 300 nM.

As for `COC(C)(C)c1ccc(-c2cc3ccccc3c(=O)[nH]2)cc1` [Compound A15, 3-[4-(1-methoxy-1-methyl-ethyl)-phenyl]-2H-isoquinolin-1-one], the figures for the IC50 in experiment [1] and in experiment [3] were 300 to 3000 nM and below 300 nM, respectively. Besides, the EC50 in experiment [2] is below 300 nM.

On to `CC(C)(O)c1ccc(-c2cc3cc(F)ccc3c(=O)[nH]2)cc1` [Compound A5, 6-fluoro-3-[4-(1-hydroxy-1-methyl-ethyl)-phenyl]-2H-isoquinolin-1-one], for which the IC50 in experiment [1] is 300 to 3000 nM; in experiment [3] it was below 300 nM. In addition, the EC50 in experiment [2] lay in the range of 300 to 3000 nM.

Consider `CC(C)(O)c1ccc(-c2cc3ccccc3c(=O)[nH]2)cc1` [Compound A3, 3-[4-(1-hydroxy-1-methyl-ethyl)-phenyl]-2H-isoquinolin-1-one], for which the IC50 in experiment [1] and in experiment [3] was below 300 nM in each case. The EC50 in experiment [2] is below 300 nM.

As to `Cc1ccc(-c2cc3cccc(F)c3c(=O)[nH]2)cc1` [Compound A11, 8-fluoro-3-p-tolyl-2H-isoquinolin-1-one], the IC50 in experiment [1] and in experiment [3] was below 300 nM in each case. The EC50 in experiment [2] lay within 300 to 3000 nM.

On to `CC(C)(O)c1ccc(-c2cc3ccncc3c(=O)[nH]2)cc1` [Compound A24, 3-[4-(1-hydroxy-1-methyl-ethyl)phenyl]-2H-2,7-naphthyridin-1-one], for which the IC50 in experiment [1] and in experiment [3] was below 300 nM each time. Moreover, in experiment [2], the EC50 is 300 to 3000 nM.

For the molecule `CC(C)(OCCO)c1ccc(-c2cc3ccc(F)cc3c(=O)[nH]2)cc1` [Compound A16, 7-fluoro-3-{4-[1-(2-hydroxy-ethoxy)-1-methyl-ethyl]-phenyl}-2H-isoquinolin-1-one], the IC50 in experiment [1] and in experiment [3] was below 300 nM in each case. In experiment [2], the EC50 was below 300 nM.

For the molecule `CC(C)(N)c1ccc(-c2cc3ccc(F)cc3c(=O)[nH]2)cc1` [Compound A20, 3-[4-(1-amino-1-methyl-ethyl)phenyl]-7-fluoro-2H-isoquinolin-1-one], the IC50 in experiment [1] and in experiment [3] was below 300 nM in each case. In experiment [2], the EC50 was 300 to 3000 nM.

For `C=C(C)c1ccc(-c2cc3ccc(F)cc3c(=O)[nH]2)cc1` [Compound A17, 7-fluoro-3-(4-isopropenyl-phenyl)-2H-isoquinolin-1-one], the IC50 in experiment [1] is 300 to 3000 nM; in experiment [3] it was below 300 nM. Besides, the EC50 in experiment [2] is below 300 nM.

For the molecule `CC(C)(O)c1ccc(-c2cc3c(F)cc(F)cc3c(=O)[nH]2)cc1` [Compound A33, 5,7-difluoro-3-[4-(1-hydroxy-1-methyl-ethyl)-phenyl]-2H-isoquinolin-1-one], the IC50 was 300 to 3000 nM in experiment [1] and below 300 nM in experiment [3]. The EC50 in experiment [2] is below 300 nM.

Consider `Cn1cc(-c2ccc(-c3cc4ccncc4c(=O)[nH]3)cc2)cn1` [Compound A14, 3-[4-(1-Methyl-1H-pyrazol-4-yl)-phenyl]-2H-[2,7]naphthyridin-1-one], for which the IC50 in experiment [1] was 300 to 3000 nM; in experiment [3], below 300 nM. Besides, the EC50 in experiment [2] lay within 300 to 3000 nM.

As for `Cc1ccc(-c2cc3ccc(F)cc3c(=O)[nH]2)cc1` [Compound A9, 7-fluoro-3-p-tolyl-2H-isoquinolin-1-one], the IC50 in experiment [1] and in experiment [3] was below 300 nM each time. Besides, the EC50 in experiment [2] is 300 to 3000 nM.

Regarding `Cc1ccc(-c2cc3cc(F)ccc3c(=O)[nH]2)cc1` [Compound A10, 6-fluoro-3-p-tolyl-2H-isoquinolin-1-one], the 50% inhibitory concentration (IC50) in experiment [1] was 300 to 3000 nM; in experiment [3], below 300 nM. In addition, the EC50 in experiment [2] was in the range of 3000 to 50000 nM.

By IC50 is commonly meant the concentration that inhibits the measured activity by half. Read a high IC50 as weaker potency in that assay.
